From publication PMC7948503, “Optimization of a peptide ligand for the adhesion GPCR ADGRG2 provides a potent tool to explore receptor biology” (The Journal of Biological Chemistry, 2020)
Non-standard residues stand in square brackets, D forms with d. Residues, ends and D or L forms follow the SMILES beside them. *: point of attachment. FITC = O=C1OC2(c3ccc(O)cc3Oc3cc(O)ccc32)c2ccc(NC(=S)*)cc21; Phe(4-Me) = Cc1ccc(C[C@H](N)C(=O)O)cc1

Assays:
Assay in all cases: BRET binding of FITC-VPM-p15
Rluc-ADGRG2-ΔGPS-β N667A = molecular target: T1, Rluc-ADGRG2-ΔGPS-β N667A (Mus musculus, UniProt Q8CJ12, N681A); conditions: mutant N667A
T1 construct: the entire ECD (including the entire GPS motif) was removed (ADGRG2-ΔGPS-β); expressed in transfected cells; host or cells: HEK293
T1 sequence (Q8CJ12 618-1009 N681A limits assumed): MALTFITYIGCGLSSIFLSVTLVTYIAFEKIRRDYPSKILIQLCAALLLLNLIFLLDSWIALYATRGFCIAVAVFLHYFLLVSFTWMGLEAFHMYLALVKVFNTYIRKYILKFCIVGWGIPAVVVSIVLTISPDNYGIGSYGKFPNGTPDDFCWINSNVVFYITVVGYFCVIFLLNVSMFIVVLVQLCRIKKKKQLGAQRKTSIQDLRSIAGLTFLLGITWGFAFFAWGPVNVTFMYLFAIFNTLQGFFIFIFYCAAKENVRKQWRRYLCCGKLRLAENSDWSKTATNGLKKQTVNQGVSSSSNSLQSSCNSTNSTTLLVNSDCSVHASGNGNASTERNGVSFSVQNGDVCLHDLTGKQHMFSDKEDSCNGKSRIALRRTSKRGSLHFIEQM
Procedure: (§1) The binding capacities of ADGRG2 WT or its mutants for VPM-p15 were determined by BRET assay, which has been used in previous studies ([27], [28], [29]). We fused the N terminus of ADGRG2 with a Rluc fragment and coupled FITC to the C terminus of VPM-p15 to facilitate BRET measurement. We stimulated the HEK293 cells transfected with Rluc-ADGRG2-ΔGPS-β wildtype (WT) or mutants by increasing the concentration of FITC-conjugated VPM-p15, and their binding abilities were determined by fitting the data with the saturation curves.
(§2) In the detection of binding capacities of ADGRG2 WT or its mutants for VPM-p15, HEK293 cells were transfected with Rluc-ADGRG2-ΔGPS-β or mutants. Transfected cells were stimulated by increasing the concentration of FITC-conjugated VPM-p15. Binding capacities were determined by BRET, EC50 values of ADGRG2 WT and its mutants for binding VPM-p15 were calculated by GraphPad, and data were normalized by EC50 of WT.

Rluc-ADGRG2-ΔGPS-β V768A = molecular target: T2, Rluc-ADGRG2-ΔGPS-β V768A (Mus musculus, UniProt Q8CJ12, V782A); conditions: mutant V768A
T2 construct: the entire ECD (including the entire GPS motif) was removed (ADGRG2-ΔGPS-β); expressed in transfected cells; host or cells: HEK293
T2 sequence (Q8CJ12 618-1009 V782A limits assumed): as the sequence (Q8CJ12 618-1009 N681A limits assumed) above, with A64N, V165A counted along it
Procedure: as §1, §2

Rluc-ADGRG2-ΔGPS-β Y611A = molecular target: T3, Rluc-ADGRG2-ΔGPS-β Y611A (Mus musculus, UniProt Q8CJ12, Y625A); conditions: mutant Y611A
T3 construct: the entire ECD (including the entire GPS motif) was removed (ADGRG2-ΔGPS-β); expressed in transfected cells; host or cells: HEK293
T3 sequence (Q8CJ12 618-1009 Y625A limits assumed): as the sequence (Q8CJ12 618-1009 N681A limits assumed) above, with Y8A, A64N counted along it
Procedure: as §1, §2

Rluc-ADGRG2-ΔGPS-β Y765A = molecular target: T4, Rluc-ADGRG2-ΔGPS-β Y765A (Mus musculus, UniProt Q8CJ12, Y779A); conditions: mutant Y765A
T4 construct: the entire ECD (including the entire GPS motif) was removed (ADGRG2-ΔGPS-β); expressed in transfected cells; host or cells: HEK293
T4 sequence (Q8CJ12 618-1009 Y779A limits assumed): as the sequence (Q8CJ12 618-1009 N681A limits assumed) above, with A64N, Y162A counted along it
Procedure: as §1, §2

Rluc-ADGRG2-ΔGPS-β F772A = molecular target: T5, Rluc-ADGRG2-ΔGPS-β F772A (Mus musculus, UniProt Q8CJ12, F786A); conditions: mutant F772A
T5 construct: expressed in transfected cells; host or cells: HEK293
T5 sequence (Q8CJ12 614-1009 F786A): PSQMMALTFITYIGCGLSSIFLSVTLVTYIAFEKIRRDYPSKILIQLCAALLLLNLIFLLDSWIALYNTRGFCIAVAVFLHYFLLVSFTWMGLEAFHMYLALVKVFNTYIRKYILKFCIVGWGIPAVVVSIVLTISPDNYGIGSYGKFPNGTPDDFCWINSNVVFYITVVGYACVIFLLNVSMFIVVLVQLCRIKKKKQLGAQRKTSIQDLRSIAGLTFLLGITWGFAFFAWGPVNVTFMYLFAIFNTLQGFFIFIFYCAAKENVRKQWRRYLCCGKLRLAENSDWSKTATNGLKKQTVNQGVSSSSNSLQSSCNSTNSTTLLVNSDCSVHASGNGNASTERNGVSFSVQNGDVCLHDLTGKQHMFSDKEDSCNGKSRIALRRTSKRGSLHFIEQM
Procedure: as §1, §2

Rluc-ADGRG2-ΔGPS-β V769A = molecular target: T6, Rluc-ADGRG2-ΔGPS-β V769A (Mus musculus, UniProt Q8CJ12, V783A); conditions: mutant V769A
T6 construct: expressed in transfected cells; host or cells: HEK293
T6 sequence (Q8CJ12 614-1009 V783A): as the sequence (Q8CJ12 614-1009 F786A) above, with V170A, A173F counted along it
Procedure: as §1, §2

Rluc-ADGRG2-ΔGPS-β Y666A = molecular target: T7, Rluc-ADGRG2-ΔGPS-β Y666A (Mus musculus, UniProt Q8CJ12, Y680A); conditions: mutant Y666A
T7 construct: the entire ECD (including the entire GPS motif) was removed (ADGRG2-ΔGPS-β); expressed in transfected cells; host or cells: HEK293
T7 sequence (Q8CJ12 618-1009 Y680A limits assumed): as the sequence (Q8CJ12 618-1009 N681A limits assumed) above, with Y63A, A64N counted along it
Procedure: as §1, §2

Rluc-ADGRG2-ΔGPS-β S760A = molecular target: T8, Rluc-ADGRG2-ΔGPS-β S760A (Mus musculus, UniProt Q8CJ12, S774A); conditions: mutant S760A
T8 construct: the entire ECD (including the entire GPS motif) was removed (ADGRG2-ΔGPS-β); expressed in transfected cells; host or cells: HEK293
T8 sequence (Q8CJ12 618-1009 S774A limits assumed): as the sequence (Q8CJ12 618-1009 N681A limits assumed) above, with A64N, S157A counted along it
Procedure: as §1, §2

Rluc-ADGRG2-ΔGPS-β F747A = molecular target: T9, Rluc-ADGRG2-ΔGPS-β F747A (Mus musculus, UniProt Q8CJ12, F761A); conditions: mutant F747A
T9 construct: the entire ECD (including the entire GPS motif) was removed (ADGRG2-ΔGPS-β); expressed in transfected cells; host or cells: HEK293
T9 sequence (Q8CJ12 618-1009 F761A limits assumed): as the sequence (Q8CJ12 618-1009 N681A limits assumed) above, with A64N, F144A counted along it
Procedure: as §1, §2

Rluc-ADGRG2-ΔGPS-β I730A = molecular target: T10, Rluc-ADGRG2-ΔGPS-β I730A (Mus musculus, UniProt Q8CJ12, I744A); conditions: mutant I730A
T10 construct: the entire ECD (including the entire GPS motif) was removed (ADGRG2-ΔGPS-β); expressed in transfected cells; host or cells: HEK293
T10 sequence (Q8CJ12 618-1009 I744A limits assumed): as the sequence (Q8CJ12 618-1009 N681A limits assumed) above, with A64N, I127A counted along it
Procedure: as §1, §2

Rluc-ADGRG2-ΔGPS-β V836A = molecular target: T11, Rluc-ADGRG2-ΔGPS-β V836A (Mus musculus, UniProt Q8CJ12, V850A); conditions: mutant V836A
T11 construct: expressed in transfected cells; host or cells: HEK293
T11 sequence (Q8CJ12 614-1009 V850A): as the sequence (Q8CJ12 614-1009 F786A) above, with A173F, V237A counted along it
Procedure: as §1, §2

Rluc-ADGRG2-ΔGPS-β T610A = molecular target: T12, Rluc-ADGRG2-ΔGPS-β T610A (Mus musculus, UniProt Q8CJ12, T624A); conditions: mutant T610A
T12 construct: the entire ECD (including the entire GPS motif) was removed (ADGRG2-ΔGPS-β); expressed in transfected cells; host or cells: HEK293
T12 sequence (Q8CJ12 618-1009 T624A limits assumed): as the sequence (Q8CJ12 618-1009 N681A limits assumed) above, with T7A, A64N counted along it
Procedure: as §1, §2

Rluc-ADGRG2-ΔGPS-β I741A = molecular target: T13, Rluc-ADGRG2-ΔGPS-β I741A (Mus musculus, UniProt Q8CJ12, I755A); conditions: mutant I741A
T13 construct: the entire ECD (including the entire GPS motif) was removed (ADGRG2-ΔGPS-β); expressed in transfected cells; host or cells: HEK293
T13 sequence (Q8CJ12 618-1009 I755A limits assumed): as the sequence (Q8CJ12 618-1009 N681A limits assumed) above, with A64N, I138A counted along it
Procedure: as §1, §2

Rluc-ADGRG2-ΔGPS-β L679A = molecular target: T14, Rluc-ADGRG2-ΔGPS-β L679A (Mus musculus, UniProt Q8CJ12, L693A); conditions: mutant L679A
T14 construct: the entire ECD (including the entire GPS motif) was removed (ADGRG2-ΔGPS-β); expressed in transfected cells; host or cells: HEK293
T14 sequence (Q8CJ12 618-1009 L693A limits assumed): as the sequence (Q8CJ12 618-1009 N681A limits assumed) above, with A64N, L76A counted along it
Procedure: as §1, §2

Rluc-ADGRG2-ΔGPS-β F826A = molecular target: T15, Rluc-ADGRG2-ΔGPS-β F826A (Mus musculus, UniProt Q8CJ12, F840A); conditions: mutant F826A
T15 construct: expressed in transfected cells; host or cells: HEK293
T15 sequence (Q8CJ12 614-1009 F840A): as the sequence (Q8CJ12 614-1009 F786A) above, with A173F, F227A counted along it
Procedure: as §1, §2

Rluc-ADGRG2-ΔGPS-β L665A = molecular target: T16, Rluc-ADGRG2-ΔGPS-β L665A (Mus musculus, UniProt Q8CJ12, L679A); conditions: mutant L665A
T16 construct: the entire ECD (including the entire GPS motif) was removed (ADGRG2-ΔGPS-β); expressed in transfected cells; host or cells: HEK293
T16 sequence (Q8CJ12 618-1009 L679A limits assumed): as the sequence (Q8CJ12 618-1009 N681A limits assumed) above, with L62A, A64N counted along it
Procedure: as §1, §2

Rluc-ADGRG2-ΔGPS-β M839A = molecular target: T17, Rluc-ADGRG2-ΔGPS-β M839A (Mus musculus, UniProt Q8CJ12, M853A); conditions: mutant M839A
T17 construct: expressed in transfected cells; host or cells: HEK293
T17 sequence (Q8CJ12 614-1009 M853A): as the sequence (Q8CJ12 614-1009 F786A) above, with A173F, M240A counted along it
Procedure: as §1, §2

Rluc-ADGRG2-ΔGPS-β V731A = molecular target: T18, Rluc-ADGRG2-ΔGPS-β V731A (Mus musculus, UniProt Q8CJ12, V745A); conditions: mutant V731A
T18 construct: the entire ECD (including the entire GPS motif) was removed (ADGRG2-ΔGPS-β); expressed in transfected cells; host or cells: HEK293
T18 sequence (Q8CJ12 618-1009 V745A limits assumed): as the sequence (Q8CJ12 618-1009 N681A limits assumed) above, with A64N, V128A counted along it
Procedure: as §1, §2

[1] = Kd(mutated ADGRG2-ΔGPS-β)/Kd(WT)

Compound `CC[C@H](C)[C@H](NC(=O)CNC(=O)[C@H](Cc1ccc(C)cc1)NC(=O)[C@H](CO)NC(=O)[C@@H](N)C(C)C)C(=O)N[C@@H](CC(C)C)C(=O)N[C@@H](CC(C)C)C(=O)N[C@@H](CC(=O)O)C(=O)N[C@@H](CC(C)C)C(=O)N[C@@H](CO)C(=O)N[C@@H](CCCNC(=N)N)C(=O)N[C@H](C(=O)N[C@@H](CO)C(=O)N[C@@H](CC(C)C)C(=O)N1CCC[C@H]1C(=O)N[C@@H](CCCCNC(=S)Nc1ccc2c(c1)C(=O)OC21c2ccc(O)cc2Oc2cc(O)ccc21)C(=O)O)[C@@H](C)O` [FITC-VPM-p15] (H-VS[Phe(4-Me)]GILLDLSRTSLPK(FITC)-OH; N-terminus and C-terminus assumed) has a Fmut (Rluc-ADGRG2-ΔGPS-β N667A; [1]) of 0.975, a Bmax (Rluc-ADGRG2-ΔGPS-β N667A; binding Bmax (BRET)) of 0.803±0.028 and a Fmut (Rluc-ADGRG2-ΔGPS-β V768A; [1]) of 1.112. For the same compound, the Bmax (Rluc-ADGRG2-ΔGPS-β V768A; binding Bmax (BRET)) was 0.792±0.029, the Fmut (Rluc-ADGRG2-ΔGPS-β Y611A; [1]) was 0.761 and the Bmax (Rluc-ADGRG2-ΔGPS-β Y611A; binding Bmax (BRET)) was 0.7912±0.020. For the same compound, the Fmut (Rluc-ADGRG2-ΔGPS-β Y765A; [1]) was 0.967, the Bmax (Rluc-ADGRG2-ΔGPS-β Y765A; binding Bmax (BRET)) was 0.796±0.013 and the Fmut (Rluc-ADGRG2-ΔGPS-β F772A; [1]) was 0.903. The Bmax (Rluc-ADGRG2-ΔGPS-β F772A; binding Bmax (BRET)) was 0.795±0.021, the Fmut (Rluc-ADGRG2-ΔGPS-β V769A; [1]) was 1.145 and the Bmax (Rluc-ADGRG2-ΔGPS-β V769A; binding Bmax (BRET)) was 0.763±0.074. The Fmut (Rluc-ADGRG2-ΔGPS-β Y666A; [1]) was 0.895, the Bmax (Rluc-ADGRG2-ΔGPS-β Y666A; binding Bmax (BRET)) was 0.809±0.029 and the Fmut (Rluc-ADGRG2-ΔGPS-β S760A; [1]) was 1.444. The Bmax (Rluc-ADGRG2-ΔGPS-β S760A; binding Bmax (BRET)) was 0.716±0.011, the Fmut (Rluc-ADGRG2-ΔGPS-β F747A; [1]) was 0.811 and the Bmax (Rluc-ADGRG2-ΔGPS-β F747A; binding Bmax (BRET)) was 0.813±0.041. The Fmut (Rluc-ADGRG2-ΔGPS-β I730A; [1]) was 1.281, the Bmax (Rluc-ADGRG2-ΔGPS-β I730A; binding Bmax (BRET)) was 0.7950±0.031 and the Fmut (Rluc-ADGRG2-ΔGPS-β V836A; [1]) was 1.315. The Bmax (Rluc-ADGRG2-ΔGPS-β V836A; binding Bmax (BRET)) was 0.775±0.030, the Fmut (Rluc-ADGRG2-ΔGPS-β T610A; [1]) was 1.197 and the Bmax (Rluc-ADGRG2-ΔGPS-β T610A; binding Bmax (BRET)) was 0.8072±0.024. The Fmut (Rluc-ADGRG2-ΔGPS-β I741A; [1]) was 0.715, the Bmax (Rluc-ADGRG2-ΔGPS-β I741A; binding Bmax (BRET)) was 0.775±0.093 and the Fmut (Rluc-ADGRG2-ΔGPS-β L679A; [1]) was 1.242. It also gave a Bmax (Rluc-ADGRG2-ΔGPS-β L679A; binding Bmax (BRET)) of 0.7804±0.017, a Fmut (Rluc-ADGRG2-ΔGPS-β F826A; [1]) of 1.248 and a Bmax (Rluc-ADGRG2-ΔGPS-β F826A; binding Bmax (BRET)) of 0.734±0.035. The Fmut (Rluc-ADGRG2-ΔGPS-β L665A; [1]) was 0.850, the Bmax (Rluc-ADGRG2-ΔGPS-β L665A; binding Bmax (BRET)) was 0.799±0.012 and the Fmut (Rluc-ADGRG2-ΔGPS-β M839A; [1]) was 0.957. The Bmax (Rluc-ADGRG2-ΔGPS-β M839A; binding Bmax (BRET)) was 0.764±0.008 and the Bmax (Rluc-ADGRG2-ΔGPS-β V731A) was 0.7903±0.018.
